Measured values as given in patent US20230212144A1, “5-MEMBERED HETEROARYL DERIVATIVE CONTAINING AT LEAST ONE N, AND PHARMACEUTICAL COMPOSITION FOR PREVENTING OR TREATING MENTAL DISORDERS, CONTAINING SAME AS ACTIVE INGREDIENT” (DAEGU-GYEONGBUK MEDICAL INNOVATION FOUNDATION, priority 2020, published 2023).

Tests used:
[1] = molecular target: dopamine transporter (DAT) (Homo sapiens, UniProt Q01959); assay: Dopamine reuptake inhibition, [3H]-DA, HEK-293 cells transfected with dopamine transporter cDNA; settings: for Triple reuptake inhibition (Ratio %) DAT: compound 1 μM, relative to control without compound (100%), lower value = stronger inhibition
Chain of dopamine transporter (DAT) (Q01959 whole entry, species assumed): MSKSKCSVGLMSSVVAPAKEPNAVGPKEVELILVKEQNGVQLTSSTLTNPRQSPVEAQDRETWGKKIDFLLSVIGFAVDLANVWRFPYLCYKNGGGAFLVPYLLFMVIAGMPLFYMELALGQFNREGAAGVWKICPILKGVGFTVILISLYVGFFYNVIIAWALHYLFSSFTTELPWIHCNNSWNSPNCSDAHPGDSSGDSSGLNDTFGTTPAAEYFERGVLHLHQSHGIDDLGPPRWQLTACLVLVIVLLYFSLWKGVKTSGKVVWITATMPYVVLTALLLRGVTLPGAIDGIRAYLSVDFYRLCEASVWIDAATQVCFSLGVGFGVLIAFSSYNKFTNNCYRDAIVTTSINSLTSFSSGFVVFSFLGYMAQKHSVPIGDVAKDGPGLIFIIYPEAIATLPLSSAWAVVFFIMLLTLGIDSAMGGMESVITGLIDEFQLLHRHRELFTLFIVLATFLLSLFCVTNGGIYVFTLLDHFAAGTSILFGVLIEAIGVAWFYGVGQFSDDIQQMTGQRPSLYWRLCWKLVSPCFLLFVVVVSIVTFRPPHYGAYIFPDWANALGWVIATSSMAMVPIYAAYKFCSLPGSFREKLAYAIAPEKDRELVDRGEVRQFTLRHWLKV
Protocol: (§1) After removing the medium, each compound of Examples or Comparative Examples diluted to 1 μM in uptake buffer was added to a concentration of 200 μL/well and cultured at 37° C. for 15 minutes. 100 μL of uptake buffer containing 20-30 nM [3H]-DA was added and cultured at 37° C. for 5 minutes. The reaction solution was quickly removed and washed three times with 1 mL ice-cold uptake buffer. After dissolving the resultant in 1% SDS (0.5 mL), the degree of binding of radioisotope-labeled dopamine to the transporter was measured.
(§2) In addition, when evaluating the reuptake inhibitory effect on dopamine, norepinephrine, and serotonin, the same method was performed without treating each compound of Examples or Comparative Examples as a control, the degree of binding of radioisotope-labeled dopamine, norepinephrine, and serotonin to the transporter was measured, and by using this as a reference (100%), the triple reuptake inhibitory effect was evaluated as a relative ratio (Ratio %). That is, in the control group, the binding of dopamine, norepinephrine, and serotonin to transporters is not inhibited, but when each compound of Examples is treated and thus the binding is inhibited, the Ratio % value decreases.

[2] = molecular target: serotonin transporter (SERT) (Homo sapiens, UniProt P31645); assay: Serotonin reuptake inhibition, [3H]-5-HT, cells transfected with 5-HT transporter cDNA; settings: for Triple reuptake inhibition (Ratio %) SERT: compound 1 μM, relative to control without compound (100%), lower value = stronger inhibition
Chain of serotonin transporter (SERT) (P31645 whole entry, species assumed): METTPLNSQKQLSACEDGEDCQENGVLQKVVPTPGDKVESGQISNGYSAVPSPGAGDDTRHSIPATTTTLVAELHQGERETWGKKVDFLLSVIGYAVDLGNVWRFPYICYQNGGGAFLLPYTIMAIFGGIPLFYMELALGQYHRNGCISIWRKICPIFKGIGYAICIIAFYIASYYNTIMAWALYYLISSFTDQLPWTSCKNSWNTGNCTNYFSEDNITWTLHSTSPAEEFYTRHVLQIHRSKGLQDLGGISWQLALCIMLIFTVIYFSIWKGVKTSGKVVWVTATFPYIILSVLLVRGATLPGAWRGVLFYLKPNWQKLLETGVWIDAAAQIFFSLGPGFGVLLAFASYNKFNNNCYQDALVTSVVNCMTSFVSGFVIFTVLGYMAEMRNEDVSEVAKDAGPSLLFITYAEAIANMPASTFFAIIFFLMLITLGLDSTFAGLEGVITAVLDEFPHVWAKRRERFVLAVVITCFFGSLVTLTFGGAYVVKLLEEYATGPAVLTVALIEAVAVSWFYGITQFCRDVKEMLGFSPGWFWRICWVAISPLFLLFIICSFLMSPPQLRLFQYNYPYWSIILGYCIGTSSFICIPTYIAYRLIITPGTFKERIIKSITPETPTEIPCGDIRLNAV
Protocol: as §1
(§3) For norepinephrine(NE) and serotonin(5-HT), the degree of binding of radioisotope-labeled norepinephrine or serotonin to the transporter was measured in the same manner as above, except that cells transfected with NE or 5-HT transporter cDNA were used and [3H]-NE or [3H]-5-HT was used as a substrate.
as §2

[3] = molecular target: norepinephrine transporter (NET) (Homo sapiens, UniProt P23975); assay: Norepinephrine reuptake inhibition, [3H]-NE, cells transfected with NE transporter cDNA; settings: for Triple reuptake inhibition (Ratio %) NET: compound 1 μM, relative to control without compound (100%), lower value = stronger inhibition
Chain of norepinephrine transporter (NET) (P23975 whole entry, species assumed): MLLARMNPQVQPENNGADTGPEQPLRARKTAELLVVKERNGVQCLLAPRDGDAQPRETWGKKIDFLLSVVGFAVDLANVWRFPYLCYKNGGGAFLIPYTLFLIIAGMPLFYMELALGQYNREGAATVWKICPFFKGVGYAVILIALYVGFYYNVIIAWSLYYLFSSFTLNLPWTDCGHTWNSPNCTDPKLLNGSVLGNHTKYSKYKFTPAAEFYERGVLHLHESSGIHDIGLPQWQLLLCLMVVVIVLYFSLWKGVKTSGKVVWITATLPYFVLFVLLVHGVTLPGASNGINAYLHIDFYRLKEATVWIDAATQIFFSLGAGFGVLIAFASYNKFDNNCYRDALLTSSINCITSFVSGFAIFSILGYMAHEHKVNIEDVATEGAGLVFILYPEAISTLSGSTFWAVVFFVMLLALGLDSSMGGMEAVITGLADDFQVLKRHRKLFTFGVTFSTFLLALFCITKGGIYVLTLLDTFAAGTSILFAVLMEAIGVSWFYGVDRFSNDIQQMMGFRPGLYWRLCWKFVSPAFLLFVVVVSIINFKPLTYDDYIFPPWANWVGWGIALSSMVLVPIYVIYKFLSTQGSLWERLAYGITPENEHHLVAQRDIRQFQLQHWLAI
Protocol: as §1, §3, §2

| SMILES | IC50 [1] [nM] | Triple reuptake inhibition (Ratio %) DAT [1] [%] | IC50 [2] [nM] | Triple reuptake inhibition (Ratio %) SERT [2] [%] | IC50 [3] [nM] | Triple reuptake inhibition (Ratio %) NET [3] [%] |
| --- | --- | --- | --- | --- | --- | --- |
| c1ccc(CC2CCN(Cc3nnc(-c4cc5ccccc5[nH]4)[nH]3)CC2)cc1 [Example 1, 2-(5-((4-benzylpiperidin-1-yl)methyl)-4H-1,2,4-triazol-3-yl)-1H-indole] | 170 | 14.90 | 3730 | 91.56 | 343 | 26.06 |
| Fc1ccc2[nH]c(-c3nnc(CN4CCC(Cc5ccccc5)CC4)[nH]3)cc2c1 [Example 2, 2-(5-((4-benzylpiperidin-1-yl)methyl)-4H-1,2,4-triazol-3-yl)-5-fluoro-1H-indole] | 83 | 3.94 | 5200 | 67.47 | 14 | 2.58 |
| c1ccc(C2CCN(Cc3nnc(-c4cc5ccccc5[nH]4)[nH]3)CC2)cc1 [Example 3, 2-(5-((4-phenylpiperidin-1-yl)methyl)-4H-1,2,4-triazol-3-yl)-1H-indole] | – | 81.14 | – | 95.94 | – | 124.39 |
| c1ccc(CN2CCN(Cc3nnc(-c4cc5ccccc5[nH]4)[nH]3)CC2)cc1 [Example 4, 2-(5-((4-benzylpiperazin-1-yl)methyl)-4H-1,2,4-triazol-3-yl)-1H-indole] | – | 22.39 | – | 90.26 | – | 64.76 |
| Clc1ccc(CC2CCN(Cc3nnc(-c4cc5ccccc5[nH]4)[nH]3)CC2)cc1Cl [Example 5, 2-(5-((4-(3,4-dichlorobenzyl)piperidin-1-yl)methyl)-4H-1,2,4-triazol-3-yl)-1H-indole] | – | 88.53 | – | 91.11 | – | 78.01 |
| COc1ccc(CC2CCN(Cc3nnc(-c4cc5ccccc5[nH]4)[nH]3)CC2)cc1 [Example 6, 2-(5-((4-(4-methoxybenzyl)piperidin-1-yl)methyl)-4H-1,2,4-triazol-3-yl)-1H-indole] | – | 88.63 | – | 70.39 | – | 88.83 |
| Clc1ccc(CC2CCN(Cc3nnc(-c4cc5ccccc5[nH]4)[nH]3)CC2)cc1 [Example 7, 2-(5-((4-(4-chlorobenzyl)piperidin-1-yl)methyl)-4H-1,2,4-triazol-3-yl)-1H-indole] | – | 73.88 | – | 79.48 | – | 103.43 |
| Clc1cccc(CC2CCN(Cc3nnc(-c4cc5ccccc5[nH]4)[nH]3)CC2)c1 [Example 8, 2-(5-((4-(3-chlorobenzyl)piperidin-1-yl)methyl)-4H-1,2,4-triazol-3-yl)-1H-indole] | – | 32.29 | – | 88.65 | – | 66.48 |
| c1ccc(CC2CCN(Cc3nnc(-c4ccccc4)[nH]3)CC2)cc1 [Example 9, 4-benzyl-1-((5-phenyl-4H-1,2,4-triazol-3-yl)methyl)piperidine] | – | 32.29 | – | 95.15 | – | 73.45 |
| COc1cc2cc(-c3nnc(CN4CCC(Cc5ccccc5)CC4)[nH]3)[nH]c2cc1OC [Example 12, 2-(5-((4-benzylpiperidin-1-yl)methyl)-4H-1,2,4-triazol-3-yl)-5,6-dimethoxy-1H-indole] | 174 | 5.96 | 1150 | 63.05 | 36 | 3.38 |
| COc1ccc2[nH]c(-c3nnc(CN4CCC(Cc5ccccc5)CC4)[nH]3)cc2c1 [Example 13, 2-(5-((4-benzylpiperidin-1-yl)methyl)-4H-1,2,4-triazol-3-yl)-5-methoxy-1H-indole] | – | 10.00 | 1210 | 60.60 | 70 | 4.78 |
| Clc1ccc2[nH]c(-c3nnc(CN4CCC(Cc5ccccc5)CC4)[nH]3)cc2c1 [Example 14, 2-(5-((4-benzylpiperidin-1-yl)methyl)-4H-1,2,4-triazol-3-yl)-5-chloro-1H-indole] | 16 | 7.44 | 1660 | 74.39 | 173 | 5.84 |
| Cc1ccc2[nH]c(-c3nnc(CN4CCC(Cc5ccccc5)CC4)[nH]3)cc2c1 [Example 15, 2-(5-((4-benzylpiperidin-1-yl)methyl)-4H-1,2,4-triazol-3-yl)-5-methyl-1H-indole] | 173 | 21.04 | 25000 | 83.60 | 1110 | 49.82 |
| Fc1ccc2cc(-c3nnc(CN4CCC(Cc5ccccc5)CC4)[nH]3)[nH]c2c1 [Example 16, 2-(5-((4-benzylpiperidin-1-yl)methyl)-4H-1,2,4-triazol-3-yl)-6-fluoro-1H-indole] | 48 | 12.06 | 3650 | 80.93 | 501 | 36.38 |
| N#Cc1ccc2[nH]c(-c3nnc(CN4CCC(Cc5ccccc5)CC4)[nH]3)cc2c1 [Example 17, 2-(5-((4-benzylpiperidin-1-yl)methyl)-4H-1,2,4-triazol-3-yl)-1H-indol-5-carbonitrile] | 83 | 9.25 | 945 | 50.31 | 226 | 11.66 |
| COc1ccc2cc(-c3nnc(CN4CCC(Cc5ccccc5)CC4)[nH]3)[nH]c2c1 [Example 18, 2-(5-((4-benzylpiperidin-1-yl)methyl)-4H-1,2,4-triazol-3-yl)-6-methoxy-1H-indole] | 76 | 37.07 | 1580 | 66.40 | 611 | 22.07 |
| COc1cccc2cc(-c3nnc(CN4CCC(Cc5ccccc5)CC4)[nH]3)[nH]c12 [Example 19, 2-(5-((4-benzylpiperidin-1-yl)methyl)-4H-1,2,4-triazol-3-yl)-7-methoxy-1H-indole] | 247 | 21.23 | 1170 | 81.23 | 188 | 15.80 |
| COC(=O)c1ccc2[nH]c(-c3nnc(CN4CCC(Cc5ccccc5)CC4)[nH]3)cc2c1 [Example 20, methyl 2-(5-((4-benzylpiperidin-1-yl)methyl)-4H-1,2,4-triazol-3-yl)-1H-indol-5-carboxylate] | 80 | 5.14 | 643 | 50.14 | 748 | 38.22 |
| c1ccc(CC2CCN(Cc3nnc(-c4ccc5ccccc5c4)[nH]3)CC2)cc1 [Example 21, 4-benzyl-1-((5-(naphthalen-2-yl)-4H-1,2,4-triazol-3-yl)methyl)piperidine] | 259 | 20.41 | 2090 | 50.05 | 619 | 27.49 |
| c1ccc(CC2CCN(Cc3nnc(-c4c[nH]c5ccccc45)[nH]3)CC2)cc1 [Example 22, 3-(5-((4-benzylpiperidin-1-yl)methyl)-4H-1,2,4-triazol-3-yl)-1H-indole] | 187 | 19.30 | 945 | 47.99 | 644 | 32.07 |
| FC(F)(F)c1ccc2[nH]c(-c3nnc(CN4CCC(Cc5ccccc5)CC4)[nH]3)cc2c1 [Example 23, 2-(5-((4-benzylpiperidin-1-yl)methyl)-4H-1,2,4-triazol-3-yl)-5-(trifluoromethyl)-1H-indole] | – | 46.60 | – | 125.38 | – | 90.00 |
| Clc1cccc2[nH]c(-c3nnc(CN4CCC(Cc5ccccc5)CC4)[nH]3)cc12 [Example 24, 2-(5-((4-benzylpiperidin-1-yl)methyl)-4H-1,2,4-triazol-3-yl)-4-chloro-1H-indole] | – | 6.56 | – | 109.21 | – | 26.69 |
| c1ccc(CC2CCN(Cc3nnc(-c4cc5ccccc5o4)[nH]3)CC2)cc1 [Example 25, 1-((5-(benzofuran-2-yl)-4H-1,2,4-triazol-3-yl)methyl)-4-benzylpiperidine] | – | 26.92 | – | 73.17 | – | 76.00 |
| CC(=O)Nc1ccc2[nH]c(-c3nnc(CN4CCC(Cc5ccccc5)CC4)[nH]3)cc2c1 [Example 66, N-(2-(5-((4-benzylpiperidin-1-yl)methyl)-4H-1,2,4-triazol-3-yl)-1H-indol-5-yl)acetamide] | – | 51.59 | – | – | – | 58.77 |
| CCCCOc1ccc2cc(-c3nnc(CN4CCC(Cc5ccccc5)CC4)[nH]3)[nH]c2c1 [Example 69, 2-(5-((4-benzylpiperidin-1-yl)methyl)-4H-1,2,4-triazol-3-yl)-6-butoxy-1H-indole] | – | 50.33 | – | – | – | 90.43 |
